From article PMC5939605, “Highly luminescent, biocompatible ytterbium(III) complexes as near-infrared fluorophores for living cell imaging” (Chemical Science, 2018)
Values joined by “and” are separate entries in the source; they are usually repeats but may differ in a detail not shown here. Identical values can stand only once.

Experiments:
[1] = design: method as in PMID 12895128; conditions: in CH2Cl2 ref 53; cited from earlier work
[2] = design: method as in PMID 22908122; conditions: in CHCl3 ref 59; cited from earlier work
[3] = NIR luminescence quantum yield, comparative method vs YbTPP(LOEt); type: physicochemical
Description: Quantum yields in solution were determined using a comparative method and the equation: Φs/Φr = (Gs/Gr) × (ηs^2/ηr^2), where the subscripts r and s denote the reference and sample respectively, Φ is the quantum yield, G is the slope from the plot of integrated emission intensity vs. absorbance, and η is the refractive index of the solvent.[79] The reference was YbTPP(LOEt) in CH2Cl2 ([…]).[53] Generally, YbTPP(LOEt) and the solution of Yb^3+ complex with 4 different concentrations were firstly prepared in the corresponding solvents. The absorbance of all the solutions at 410 nm was recorded on an Agilent 8453 UV-vis spectrometer equipped with an Agilent 89090A thermostat (±0.1 °C) and NIR emissions were recorded on an Edinburgh Analytical Instruments FLS980 lifetime and steady state spectrometer with the excitation wavelength at 410 nm under identical conditions. According to the ratio of the slope GYb – x/Gr (x = 1–5, 2c–5c), the relative quantum yield of Yb^3+ complexes could be obtained according to the equation described above. The absorbance values of all the samples and references are below 0.1 and the absorbance values undergo background correction by subtracting the average over a range from 800 to 820 nm. The integrated emission intensity integrated from 880 nm to 1150 nm was obtained by subtracting the blank (integrated emission intensity with only the pure solvent under identical conditions). The estimated error for the quantum yield measurements is 15%. For the quantum yield measured in degassed solution, solutions of Yb^3+ complexes with 4 different concentrations were degassed via 5 freeze–pump–thaw cycles. Then the measurement and calculation were the same as above.

[4] = n-octanol/water partition coefficient (log P); type: physicochemical
Description: Equal volumes (2000 mL) of n-octanol and water were thoroughly mixed using an oscillator and separated after 24 h. Yb^3+ complex (0.1 mg each) was then dissolved in 40 mL of the separated n-octanol and the solution and 40 mL of water (previously separated from the mixture) was added. The new water–octanol system was allowed to equilibrate for additional 24 h. After separation, both fractions were analyzed by UV-vis spectra. The log P values were calculated with the following equation:[80]1 log P = log(Coctanol/Cwater)where Coctanol and Cwater refer to the concentrations of Yb^3+ complexes in n-octanol and water, respectively.

[5] = NIR luminescence decay lifetime monitored at 980 nm; type: physicochemical; conditions: for Decay lifetime (τobs): bovine albumin (BSA), air-saturated, 0.1% DMSO
Description: Emission, excitation spectra and lifetime were measured on an Edinburgh Analytical Instruments FLS980 lifetime and steady state spectrometer equipped with a 450 W Xe lamp, a 60 W microsecond flash lamp, PMT R928 for the visible emission spectrum, HAMAMATSU R5509-73 PMT with a C9940-02 cooler for the NIR emission spectrum and luminescence lifetime. Excitation and emission spectra were corrected for instrumental functions (including the correction for detector, gratings etc.). All luminescence decays were exponentially tail-fitted by monoexponential functions without deconvolution for the negligible instrumental reference function in the NIR region.

[6] = Stability in solution and aqueous media (absorption / NIR luminescence, dark and 405 nm laser); type: physicochemical
From the text: We also measured the ^2D NMR of Yb-4 in CH3OH as an example (Fig. S75 ^†) and only one single peak was observed.
Fig. 2 (a) Spectroscopic evaluation of Yb-4 photostability in water, PBS and FBS with 0.1% DMSO under irradiation of a 405 nm laser (0.2 W cm^–2) (inset: dark stability); (b) spectroscopic evaluation of Yb-4 and Yb-4c stabilities in pH = 5 PBS with 0.1% DMSO under irradiation of a 405 nm laser (0.2 W cm^–2). Emission intensity values were referenced to the emission intensity of Yb^3+ (980 nm) at 0 h.

[7] = DMSO, air-equil., monitored at 980 nm
[8] = DMSO, degassed, monitored at 980 nm
[9] = H2O with 0.1% DMSO, air-equil., monitored at 980 nm
[10] = H2O with 0.1% DMSO, degassed, monitored at 980 nm

5,10,15,20-tetraphenylporphyrin-Yb(III)-[(cyclopentadienyl)tris(di(ethyl)phosphito)cobaltate] [YbTPP(LOEt)]
NIR luminescence quantum yield of reference [1]: 0.024

C1=Cc2nc1c(-c1ccccc1)c1nc(c(-c3ccccc3)c3ccc([nH]3)c(-c3ccccc3)c3ccc([nH]3)c2-c2ccccc2)C=C1 [TPP, tetraphenylporphyrin]
singlet oxygen quantum yield of reference (ΦΔ) [2]: 0.55

OC[C@H]1O[C@@H](Oc2ccc(C3=C4N=C(C(F)=C4F)C(c4ccc(O[C@@H]5O[C@H](CO)[C@@H](O)[C@H](O)[C@H]5O)cc4)=c4c(F)c(F)c5[n]4[Yb+][n]4c3c(F)c(F)c4C(c3ccc(O[C@@H]4O[C@H](CO)[C@@H](O)[C@H](O)[C@H]4O)cc3)=C3N=C(C(F)=C3F)C=5c3ccc(O[C@@H]4O[C@H](CO)[C@@H](O)[C@H](O)[C@H]4O)cc3)cc2)[C@H](O)[C@@H](O)[C@@H]1O.[2H]C([2H])([2H])O[P](=O)(OC([2H])([2H])[2H])[Co-]([CH]1C=CC=C1)([P](=O)(OC([2H])([2H])[2H])OC([2H])([2H])[2H])[P](=O)(OC([2H])([2H])[2H])OC([2H])([2H])[2H] [Yb-1]
ΦYb ([3]; DMSO, air-equil.): 16(2) % | ΦYb ([3]; DMSO, degassed): 16(2) % | ΦYb ([3]; H2O with 0.1% DMSO, air-equil.): 7.6(0.4) % | ΦYb ([3]; H2O with 0.1% DMSO, degassed): 7.7(0.5) % | log Po/w [4]: 1.32 | τobs [5, 7]: 161(5) μs | τobs [5, 8]: 165(4) μs | τobs [5, 9]: 95(2) μs | τobs [5, 10]: 96(3) μs | Decay lifetime (τobs) ([5]; monitored at 980 nm): 100(3)

O=C(O)c1ccc(C2=C3C=CC(=N3)C(c3c(F)c(F)c(F)c(F)c3F)=c3ccc4[n]3[Yb+][n]3c2ccc3C(c2c(F)c(F)c(F)c(F)c2F)=C2C=CC(=N2)C=4c2c(F)c(F)c(F)c(F)c2F)cc1.[2H]C([2H])([2H])O[P](=O)(OC([2H])([2H])[2H])[Co-]([CH]1C=CC=C1)([P](=O)(OC([2H])([2H])[2H])OC([2H])([2H])[2H])[P](=O)(OC([2H])([2H])[2H])OC([2H])([2H])[2H] [Yb-2c]
ΦYb ([3]; DMSO, air-equil.): 6.2(0.2) % | ΦYb ([3]; DMSO, degassed): 6.0(0.2) % | ΦYb ([3]; H2O with 0.1% DMSO, air-equil.): 2.5(0.2) % | ΦYb ([3]; H2O with 0.1% DMSO, degassed): 2.6(0.2) % | log Po/w [4]: 1.26 | τobs [5, 7]: 52(2) μs | τobs [5, 8]: 52(2) μs | τobs [5, 9]: 38(1) μs | τobs [5, 10]: 41(2) μs

FC1=C(F)C2=C(c3ccc(C[P+](c4ccccc4)(c4ccccc4)c4ccccc4)cc3)c3c(F)c(F)c4[n]3[Yb+][n]3c(c(F)c(F)c3=C(c3ccc(C[P+](c5ccccc5)(c5ccccc5)c5ccccc5)cc3)C3=NC(=C4c4ccc(C[P+](c5ccccc5)(c5ccccc5)c5ccccc5)cc4)C(F)=C3F)=C(c3ccc(C[P+](c4ccccc4)(c4ccccc4)c4ccccc4)cc3)C1=N2.[2H]C([2H])([2H])O[P](=O)(OC([2H])([2H])[2H])[Co-]([CH]1C=CC=C1)([P](=O)(OC([2H])([2H])[2H])OC([2H])([2H])[2H])[P](=O)(OC([2H])([2H])[2H])OC([2H])([2H])[2H].[Cl-].[Cl-].[Cl-].[Cl-] [Yb-3]
ΦYb ([3]; DMSO, air-equil.): 20(1) % | ΦYb ([3]; DMSO, degassed): 21(2) % | ΦYb ([3]; H2O with 0.1% DMSO, air-equil.): 5.1(0.2) % | ΦYb ([3]; H2O with 0.1% DMSO, degassed): 5.2(0.3) % | log Po/w [4]: 0.56 | τobs [5, 7]: 205(2) μs | τobs [5, 8]: 213(5) μs | τobs [5, 9]: 56(2) μs | τobs [5, 10]: 58(3) μs | Decay lifetime (τobs) ([5]; monitored at 980 nm): 90(2)

C1=CC2=C(c3ccc(C[P+](c4ccccc4)(c4ccccc4)c4ccccc4)cc3)c3ccc4[n]3[Yb+][n]3c(ccc3=C(c3ccc(C[P+](c5ccccc5)(c5ccccc5)c5ccccc5)cc3)C3=NC(=C4c4ccc(C[P+](c5ccccc5)(c5ccccc5)c5ccccc5)cc4)C=C3)=C(c3ccc(C[P+](c4ccccc4)(c4ccccc4)c4ccccc4)cc3)C1=N2.[2H]C([2H])([2H])O[P](=O)(OC([2H])([2H])[2H])[Co-]([CH]1C=CC=C1)([P](=O)(OC([2H])([2H])[2H])OC([2H])([2H])[2H])[P](=O)(OC([2H])([2H])[2H])OC([2H])([2H])[2H].[Cl-].[Cl-].[Cl-].[Cl-] [Yb-3c]
ΦYb ([3]; DMSO, air-equil.): 5.6(0.2) % | ΦYb ([3]; DMSO, degassed): 5.6(0.2) % | ΦYb ([3]; H2O with 0.1% DMSO, air-equil.): 1.4(0.1) % | ΦYb ([3]; H2O with 0.1% DMSO, degassed): 1.4(0.1) % | log Po/w [4]: 0.24 | τobs [5, 7]: 49(1) μs | τobs [5, 8]: 51(2) μs | τobs [5, 9]: 25(1) μs | τobs [5, 10]: 26(2) μs

C[N+]1(C)CC2(F)C3=NC(=C(c4c(F)c(F)c(F)c(F)c4F)c4c(F)c(F)c5[n]4[Yb+][n]4c(c(F)c(F)c4=C3c3c(F)c(F)c(F)c(F)c3F)=C(c3c(F)c(F)c(F)c(F)c3F)C3=NC(=C5c4c(F)c(F)c(F)c(F)c4F)C(F)=C3F)C2(F)C1.[2H]C([2H])([2H])O[P](=O)(OC([2H])([2H])[2H])[Co-]([CH]1C=CC=C1)([P](=O)(OC([2H])([2H])[2H])OC([2H])([2H])[2H])[P](=O)(OC([2H])([2H])[2H])OC([2H])([2H])[2H].[I-] (centres unmarked) [Yb-4]
photostability ([6]; pH = 5 PBS with 0.1% DMSO, 405 nm laser 0.2 W cm^–2): photostable over 4 h | NIR luminescence under continuous irradiation ([6]; water, PBS and FBS with 0.1% DMSO, 405 nm laser, 0.2 W cm^–2): did not significantly change | dark stability ([6]; water, PBS and FBS with 0.1% DMSO, NIR luminescence): high dark stability over 48 h | ΦYb ([3]; DMSO, air-equil.): 17(2) % | ΦYb ([3]; DMSO, degassed): 18(2) % | ΦYb ([3]; H2O with 0.1% DMSO, air-equil.): 10% and 10(1) % | ΦYb ([3]; H2O with 0.1% DMSO, degassed): 10(1) % | ΦYb and τobs in H2O relative to Yb-4c ([3]; H2O, air-saturated): 4 fold | log Po/w [4]: 1.34 | τobs [5, 7]: 173(4) μs | τobs [5, 8]: 187(8) μs | τobs [5, 9]: 140 μs and 140(5) μs | τobs [5, 10]: 142(5) μs | Decay lifetime (τobs) ([5]; monitored at 980 nm): 145(3) | τobs ([5]; ethanol, air-equil., λex = 410 nm, 980 nm): 86(4) μs | τobs ([5]; ethanol, degassed, λex = 410 nm, 980 nm): 99(2) μs | τobs ([5]; glycerol, air-equil., λex = 410 nm, 980 nm): 192(4) μs | τobs ([5]; glycerol, degassed, λex = 410 nm, 980 nm): 195(5) μs | τobs ([5]; i-propanol, air-equil., λex = 410 nm, 980 nm): 110(5) μs | τobs ([5]; i-propanol, degassed, λex = 410 nm, 980 nm): 120(3) μs | τobs ([5]; methanol, air-equil., λex = 410 nm, 980 nm): 68(2) μs | τobs ([5]; methanol, degassed, λex = 410 nm, 980 nm): 74(3) μs | τobs ([5]; t-butanol, air-equil., λex = 410 nm, 980 nm): 117(4) μs | τobs ([5]; t-butanol, degassed, λex = 410 nm, 980 nm): 127(3) μs

C[N+]1(C)CC2C3=NC(=C(c4c(F)c(F)c(F)c(F)c4F)c4ccc5[n]4[Yb+][n]4c(ccc4=C3c3c(F)c(F)c(F)c(F)c3F)=C(c3c(F)c(F)c(F)c(F)c3F)C3=NC(=C5c4c(F)c(F)c(F)c(F)c4F)C=C3)C2C1.[2H]C([2H])([2H])O[P](=O)(OC([2H])([2H])[2H])[Co-]([CH]1C=CC=C1)([P](=O)(OC([2H])([2H])[2H])OC([2H])([2H])[2H])[P](=O)(OC([2H])([2H])[2H])OC([2H])([2H])[2H].[I-] (centres unmarked) [Yb-4c]
photobleaching ([6]; pH = 5 PBS with 0.1% DMSO, 405 nm laser 0.2 W cm^–2, 4 h): 55% | ΦYb ([3]; DMSO, air-equil.): 5.4(0.2) % | ΦYb ([3]; DMSO, degassed): 5.5(0.2) % | ΦYb ([3]; H2O with 0.1% DMSO, air-equil.): 2.3% and 2.3(0.2) % | ΦYb ([3]; H2O with 0.1% DMSO, degassed): 2.4(0.1) % | log Po/w [4]: 1.33 | τobs [5, 7]: 49(2) μs | τobs [5, 8]: 50(2) μs | τobs [5, 9]: 35 μs and 35(1) μs | τobs [5, 10]: 38(2) μs
